The nature of this assay: static efficiency test of sulfate scale inhibition. The conditions noted are these: 90° C., one hour after mixing anion and cation brine 1:1 (v/v), Ba2+ in solution; for inhibition efficiency, Brine A: SI dosage 1 ppm; for inhibition efficiency, Brine B: SI dosage 7.5 ppm; for inhibition efficiency, Brine C: SI dosage 5 ppm; for inhibition efficiency, Brine D: SI dosage 30 ppm. Here is the method:
Anion brine and cation brines A, B, C, and D were prepared according to Table 1. The preheated anion brine and cation brine were mixed at 1:1 (v/v) ratio to achieve the targeted concentration. Briefly. In the blank test, no scale inhibitor (SI) was added, but a known amount of various SI was added to other test bottles to understand the performance of various SIs. In the scale inhibition tests, inhibition performance or inhibition efficiency at 90° C., especially for barite inhibition at one hour after mixing of anion and cation brine with and without presence of SI was determined using the following equation:
[formula] • At where: • Ca is the concentration (mg/L) of Ba^2+ in solution after the one-hour test with scale inhibitor. • Cb is the concentration (mg/L) of Ba^2+ in solution in the blank after the one-hour test (without scale inhibitor). • Co is the concentration (mg/L) of the resulting Ba^2+ in synthetic water.
The SI dosages in Brine A, B, C and […] was 1, 7.5, 5, and 30 ppm, respectively.

Structures are written as SMILES.

For `O=P(O)(O)CN(CC(O)COCC(O)C(OCC(O)CN(CP(=O)(O)O)CP(=O)(O)O)C(O)C(COCC(O)CN(CP(=O)(O)O)CP(=O)(O)O)OCC(O)CN(CP(=O)(O)O)CP(=O)(O)O)CP(=O)(O)O` (stereo not shown) [Example 1, 1,3,5,6-Tetrakis{3-[bis(phosphonomethyl)amino]-2-hydroxypropoxy}-2,4-hexandiol], the “inhibition efficiency, Brine A” value is reported as 57%; the “inhibition efficiency, Brine B” value was 88%; the “inhibition efficiency, Brine C” value amounted to 67%; the “inhibition efficiency, Brine D” value was found to be 42%.

Turning to `O=P(O)(O)CN(CCNCC(O)COCC(O)C(OCC(O)CNCCN(CP(=O)(O)O)CP(=O)(O)O)C(O)C(COCC(O)CNCCN(CP(=O)(O)O)CP(=O)(O)O)OCC(O)CNCCN(CP(=O)(O)O)CP(=O)(O)O)CP(=O)(O)O` (stereo not shown) [Example 2, 12,14-bis(3-((2-(bis(phosphonomethyl)amino)ethyl)amino)-2-hydroxypropoxy)-2,23-(bis(phosphonomethyl)amino)-9,16-dioxa-2,5,20,23-tetraazatetracosane-7,11,13,18-tetraol], the “inhibition efficiency, Brine A” value is 100%; the “inhibition efficiency, Brine B” value is 100%; the “inhibition efficiency, Brine C” value worked out at 84%; the “inhibition efficiency, Brine D” value turned out to be 83%.

`CN(CC(O)COCC(O)C(OCC(O)CN(C)CP(=O)(O)O)C(O)C(COCC(O)CN(C)CP(=O)(O)O)OCC(O)CN(C)CP(=O)(O)O)CP(=O)(O)O` (stereo not shown) [Example 4]: the “inhibition efficiency, Brine A” value is recorded as 23%; the “inhibition efficiency, Brine B” value was 7%; the “inhibition efficiency, Brine C” value is reported as 5%; the “inhibition efficiency, Brine D” value came out at 2%.

With `O=P(O)(O)CN(CCO)CC(O)COCC(O)C(OCC(O)CN(CCO)CP(=O)(O)O)C(O)C(COCC(O)CN(CCO)CP(=O)(O)O)OCC(O)CN(CCO)CP(=O)(O)O` (stereo not shown) [Example 3, 10,12-bis(2-hydroxy-3-((2-hydroxyethyl)(phosphonomethyl)amino)propoxy)-3,18-bis(phosphonomethyl)-7,14-dioxa-3,18-diazaicosane-1,5,9,11,16,20-hexaol], the “inhibition efficiency, Brine A” value amounted to 48%; the “inhibition efficiency, Brine B” value came to 36%; the “inhibition efficiency, Brine C” value was found to be 71%; the “inhibition efficiency, Brine D” value is 5%.

As to `O=P(O)(O)CN(CC(O)COCC(CO)OCC(O)CN(CP(=O)(O)O)CP(=O)(O)O)CP(=O)(O)O` (stereo not shown) [Example 5], the “inhibition efficiency, Brine A” value came to 42%; the “inhibition efficiency, Brine B” value amounted to 86%; the “inhibition efficiency, Brine C” value was determined as 86%; the “inhibition efficiency, Brine D” value turned out to be 42%.

`O=P(O)(O)CN(CC(O)COCCCCOCC(O)CN(CP(=O)(O)O)CP(=O)(O)O)CP(=O)(O)O` (stereo not shown) [Example 6, 3,3-(butane-1,4-diylbis(oxy))bis(1-(bis(phosphonomethyl))propan-2-ol)]: the “inhibition efficiency, Brine A” value is 47%; the “inhibition efficiency, Brine B” value was 63%; the “inhibition efficiency, Brine C” value was determined as 98%; the “inhibition efficiency, Brine D” value is given as 6%.

Regarding `O=P(O)(O)CN(CCN(CP(=O)(O)O)CP(=O)(O)O)CCN(CP(=O)(O)O)CP(=O)(O)O` [DTPMP, diethylenetriamine penta(methylene phosphonic acid), reference compound], the “inhibition efficiency, Brine A” value is given as 94%; the “inhibition efficiency, Brine B” value came to 77%; the “inhibition efficiency, Brine C” value stood at 100%; the “inhibition efficiency, Brine D” value is given as 24%.
